According to PMC3618943, “Interaction of Natural Dietary and Herbal Anionic Compounds and Flavonoids with Human Organic Anion Transporters 1 (SLC22A6), 3 (SLC22A8), and 4 (SLC22A11)” (Evidence-based Complementary and Alternative Medicine : eCAM, 2013):
Entries after “also recorded” stand apart in the source; their conditions may differ. Structures can show the parent of a compound that is named as a salt. Where two headings read alike, the source gives them in different places.

Legend:
hOAT1 (SLC22A6) [1] = molecular target: T1, hOAT1 (SLC22A6) (Homo sapiens, UniProt Q4U2R8); experiment: Inhibition of hOAT1-mediated [3H]PAH uptake, cell accumulation assay in CHO-hOAT1 cells; type: cell-based; settings: for Ki: assuming competitive inhibition, 1 min uptake, read-out: inhibition constant Ki for hOAT1; for Ki / effect on hOAT1-mediated PAH uptake (in words): 1 μM [3H]PAH
T1 construct: expressed in transfected cells
T1 sequence (Q4U2R8 1-550 isoform Q4U2R8-2): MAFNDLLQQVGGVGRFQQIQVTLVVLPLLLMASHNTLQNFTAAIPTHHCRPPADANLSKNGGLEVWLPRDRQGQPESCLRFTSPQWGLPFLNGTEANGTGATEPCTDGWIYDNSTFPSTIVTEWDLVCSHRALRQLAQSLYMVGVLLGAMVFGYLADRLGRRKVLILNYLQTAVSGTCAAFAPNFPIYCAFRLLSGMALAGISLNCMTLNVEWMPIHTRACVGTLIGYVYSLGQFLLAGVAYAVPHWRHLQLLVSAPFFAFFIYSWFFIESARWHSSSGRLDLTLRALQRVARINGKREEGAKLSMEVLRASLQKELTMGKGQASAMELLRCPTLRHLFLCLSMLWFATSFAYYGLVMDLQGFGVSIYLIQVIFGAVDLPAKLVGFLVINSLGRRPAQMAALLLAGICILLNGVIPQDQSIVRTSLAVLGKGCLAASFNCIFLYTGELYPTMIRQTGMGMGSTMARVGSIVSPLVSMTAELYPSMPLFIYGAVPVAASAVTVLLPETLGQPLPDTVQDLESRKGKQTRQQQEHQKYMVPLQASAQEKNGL
Description: (§1) The cell accumulation assay protocol was performed as described in our recent publications with minor modifications. In brief, 2 × 10^5 cells/well were seeded in 24-well tissue culture plates and grown in the absence of antibiotics for two days. For transport experiments cells were preincubated in transport buffer without substrates or inhibitors for 10 min after which time the buffer was replaced with 400 μL of fresh transport buffer containing 1 μM [^3H]PAH (0.5 μCi/mL) or [^3H]ES (0.25 μCi/mL) with or without test compounds. After incubation for times specified in the figure legends, cellular uptake was quenched by quickly rinsing each well three times with fresh ice-cold transport buffer. Cells were lysed with 1 M NaOH and radioactivity was measured with a liquid scintillation counter and reported as picomoles of substrate per milligram total protein. All intracellular uptake data were corrected for background accumulation in corresponding empty vector transfected control cells. Kinetic calculations were performed using GraphPad Prism Software version 5.0 (GraphPad Software Inc., San Diego, CA). The half maximal inhibitory concentrations (IC50) and inhibitory constants (K i) were calculated using nonlinear regression with the appropriate models. Results were confirmed by repeating all experiments at least three times with triplicate wells for each data point.
Ten-minute uptake of [^3H]PAH (1 μM) was measured in CHO-hOAT1 cells in the absence and presence of test compounds (50 μM) or probenecid (1000 μM). Data represent hOAT1-mediated transport specifically, that is, data have been corrected for background PAH accumulation measured in empty vector transfected cells. Values are mean ± S.D. of triplicate values from a representative experiment. ** denotes P < 0.01, and *** denotes P < 0.001 as determined by one-way ANOVA followed by Dunnett's t-test.
One-minute uptake of [^3H]PAH (1 μM) in CHO-hOAT1 cells was measured in the presence of increasing concentrations (10^−7 to 5 × 10^−4 M) of test compounds. Data were corrected by subtracting background PAH accumulation measured in empty vector transfected cells. IC50 values were determined with nonlinear regression and the “log(inhibitor) versus response” model using GraphPad Prism software. Experiments were repeated three times with triplicate samples and graphs shown are from representative experiments with values plotted as mean ± S.D. (n = 3). The data were used to generate mean IC50 ± S.E.M. estimates.

hOAT3 (SLC22A8) [2] = molecular target: T2, hOAT3 (SLC22A8) (Homo sapiens, UniProt Q8TCC7); experiment: Inhibition of hOAT3-mediated [3H]ES uptake, cell accumulation assay in HEK-hOAT3 cells; type: cell-based; settings: 10 min uptake; for inhibition at 50 µM / effect on hOAT3-mediated ES uptake (in words): 50 μM test compound; for inhibition at 50 µM: 1 μM [3H]ES (50-fold excess)
T2 construct: expressed in transfected cells
T2 sequence (Q8TCC7 1-542): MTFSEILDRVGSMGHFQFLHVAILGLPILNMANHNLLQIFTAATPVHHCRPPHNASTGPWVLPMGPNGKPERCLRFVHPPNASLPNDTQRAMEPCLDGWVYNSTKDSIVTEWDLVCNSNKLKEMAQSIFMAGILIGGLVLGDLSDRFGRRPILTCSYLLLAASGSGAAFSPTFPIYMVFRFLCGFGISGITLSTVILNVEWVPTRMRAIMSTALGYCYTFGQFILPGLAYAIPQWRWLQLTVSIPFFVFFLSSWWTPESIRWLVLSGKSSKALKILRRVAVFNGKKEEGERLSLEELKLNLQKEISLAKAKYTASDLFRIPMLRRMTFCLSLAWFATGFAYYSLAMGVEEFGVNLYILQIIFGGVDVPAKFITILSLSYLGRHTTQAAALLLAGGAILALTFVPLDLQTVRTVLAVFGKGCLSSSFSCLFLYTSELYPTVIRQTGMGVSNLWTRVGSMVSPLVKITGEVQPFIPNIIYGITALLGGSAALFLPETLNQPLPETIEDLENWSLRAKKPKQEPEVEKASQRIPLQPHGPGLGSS
Description: (§2) Derivation and culture of stably transfected Chinese hamster ovary (CHO) cells expressing hOAT1 (CHO-hOAT1) and hOAT4 (CHO-hOAT4), stably transfected human embryonic kidney 293 (HEK) cells expressing hOAT3 (HEK-hOAT3), and their corresponding empty vector transfected background control cell lines, have been described previously.
as §1, with “point. […]” for “point.”
Figure 4 Inhibitory effects of the nine test compounds on hOAT3-mediated ES uptake. Ten-minute uptake of [^3H]ES (1 μM) was measured in HEK-hOAT3 cells in the absence and presence of test compounds (50 μM) or probenecid (1000 μM). Data represent hOAT3-mediated transport specifically, that is, data have been corrected for background ES accumulation measured in empty vector transfected cells. Values are mean ± S.D. of triplicate values from a representative experiment. * denotes P < 0.05, ** denotes P < 0.01, and *** denotes p < 0.001 as determined by one-way ANOVA followed by Dunnett's t-test.

hOAT1 (SLC22A6) [3] = molecular target: T1, hOAT1 (SLC22A6); experiment: Inhibition of hOAT1-mediated [3H]PAH uptake, cell accumulation assay in CHO-hOAT1 cells; type: cell-based; settings: dose-response 0.01–500 μM, 1 μM [3H]PAH, 1 min uptake, mean ± S.E.M., read-out: IC50 on hOAT1-mediated PAH transport
hOAT4 (SLC22A11) = molecular target: T3, hOAT4 (SLC22A11) (Homo sapiens, UniProt Q9NSA0); experiment: Inhibition of hOAT4-mediated [3H]ES uptake, cell accumulation assay in CHO-hOAT4 cells; type: cell-based
T3 construct: expressed in transfected cells
T3 sequence (Q9NSA0 1-550): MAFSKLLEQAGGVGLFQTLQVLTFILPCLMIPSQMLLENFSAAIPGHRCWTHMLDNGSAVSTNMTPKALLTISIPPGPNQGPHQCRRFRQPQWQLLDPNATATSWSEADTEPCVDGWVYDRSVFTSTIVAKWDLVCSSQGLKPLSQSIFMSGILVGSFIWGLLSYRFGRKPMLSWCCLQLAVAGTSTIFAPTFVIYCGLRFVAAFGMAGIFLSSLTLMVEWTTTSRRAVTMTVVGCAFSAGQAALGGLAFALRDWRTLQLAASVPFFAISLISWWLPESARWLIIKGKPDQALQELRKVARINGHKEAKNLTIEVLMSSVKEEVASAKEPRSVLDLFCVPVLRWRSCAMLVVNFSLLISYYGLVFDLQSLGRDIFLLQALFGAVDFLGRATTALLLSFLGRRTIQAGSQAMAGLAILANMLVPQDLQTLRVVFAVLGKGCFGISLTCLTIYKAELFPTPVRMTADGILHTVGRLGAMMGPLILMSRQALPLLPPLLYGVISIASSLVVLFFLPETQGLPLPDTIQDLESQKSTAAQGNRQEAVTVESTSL
Description: as §2
as §1, with “point. […]” for “point.”
Figure 5 Inhibitory effects of the nine test compounds on hOAT4-mediated ES uptake. Ten minute uptake of [^3H]ES (1 μM) was measured in CHO-hOAT4 cells in the absence and presence of test compounds (50 μM) or ES (1000 μM for self-inhibition). Data represent hOAT4-mediated transport specifically, that is, data have been corrected for background ES accumulation measured in empty vector transfected cells. Values are mean ± S.D. of triplicate values from a representative experiment. * denotes P < 0.05, and *** denotes P < 0.001 as determined by one-way ANOVA followed by Dunnett's t-test.

[4] = human subjects, cited from earlier work
hOAT3 (SLC22A8) [5] = molecular target: T2, hOAT3 (SLC22A8); parameters: method as in PMID 22877817; settings: linear uptake for initial 1 min; cited from earlier work
[6] = 50 μM test compound, 1 μM [3H]PAH (50-fold excess), 10 min uptake
[7] = 50 μM test compound, 1 μM [3H]ES, 10 min uptake, CHO-hOAT4 cells
[8] = 50 μM test compound, 10 min uptake

## O=C(/C=C/c1ccc(O)c(O)c1)O[C@@H]1C[C@@](OC(=O)/C=C/c2ccc(O)c(O)c2)(C(=O)O)C[C@@H](O)[C@@H]1O [1,3-Dicaffeoylquinic acid, 1,3-dicaffeoylquinic acid]
hOAT1 (SLC22A6) [1]; [6]
  inhibition at 50 µM: 64%
hOAT1 (SLC22A6) [1]
  Ki: 1.1 ± 0.2 µM
hOAT3 (SLC22A8) [2]
  inhibition at 50 µM: 41%
hOAT1 (SLC22A6) [3]
  IC50: 1.2 ± 0.4 µM

## O=C(C=Cc1ccc(O)c(O)c1)OC1CC(OC(=O)C=Cc2ccc(O)c(O)c2)(C(=O)O)CC(O)C1O (stereo not shown) [1,5-Dicaffeoylquinic acid, 1,5-dicaffeoylquinic acid]
hOAT1 (SLC22A6) [1]; [6]
  inhibition at 50 µM: 22%
hOAT3 (SLC22A8) [2]
  inhibition at 50 µM: 30 to 35%
hOAT4 (SLC22A11); [7]
  effect on hOAT4-mediated ES uptake (in words): significant stimulation of ES uptake
[4]; oral, 600 mg
  Cmax: 140 nM

## CC1(C)[C@@H](O)CC[C@]2(C)[C@H]3C(=O)C=C4[C@@H]5C[C@@](C)(C(=O)O)CC[C@]5(C)CC[C@@]4(C)[C@]3(C)CC[C@@H]12 [18β-glycyrrhetinic acid]
hOAT1 (SLC22A6) [1]; [6]
  inhibition of hOAT1-mediated PAH uptake: 56%
hOAT1 (SLC22A6) [1]
  Ki: 2.5 ± 0.2 µM
hOAT3 (SLC22A8) [2]; 1 μM [3H]ES
  effect on hOAT3-mediated ES uptake (in words): failed to produce significant inhibition
hOAT1 (SLC22A6) [3]
  IC50: 2.7 ± 0.2 µM
hOAT4 (SLC22A11); [7]
  effect on hOAT4-mediated ES uptake (in words): significant stimulation of ES uptake
[4]; oral, 130–144 mg glycyrrhizin, assuming plasma 18α- : 18β-glycyrrhetinic acid about 1 : 3
  Cmax: 110 to 2900 nM

## Oc1cc(O)c2c(c1)O[C@H](c1ccc(O)c(O)c1)[C@@H](O)C2 [Catechin]
hOAT1 (SLC22A6) [1]; [8]
  effect on hOAT1-mediated PAH uptake (in words): no inhibition
hOAT3 (SLC22A8) [2]; 1 μM [3H]ES
  effect on hOAT3-mediated ES uptake (in words): failed to produce significant inhibition
hOAT4 (SLC22A11); [7]
  inhibition at 50 µM: 32%
hOAT4 (SLC22A11); inferred from level of inhibition at 50 μM, no kinetic study, read-out: IC50 on hOAT4 transport activity
  IC50: > 50 µM

## C[C@]12CC[C@@H]3c4ccc(OS(=O)(=O)O)cc4CC[C@H]3[C@@H]1CCC2=O [ES, estrone sulfate, reference compound]
hOAT3 (SLC22A8) [5]
  K m of ES uptake in hOAT3 expressing cells: 14.5 µM
hOAT4 (SLC22A11); unlabeled ES 1000 μM, 1 μM [3H]ES, 10 min uptake, CHO-hOAT4 cells
  inhibition of hOAT4-mediated ES uptake (self-inhibition): > 96%

## Oc1cc(O)c2c(c1)O[C@H](c1ccc(O)c(O)c1)[C@H](O)C2 [Epicatechin]
hOAT1 (SLC22A6) [1]; [8]
  effect on hOAT1-mediated PAH uptake (in words): no inhibition
hOAT3 (SLC22A8) [2]
  inhibition at 50 µM: 30 to 35%
[4]; oral, 37 mg
  Cmax: 200 nM

## C[C@H]1[C@H](C)CC[C@]2(C(=O)O)CC[C@]3(C)C(=CC[C@@H]4[C@@]5(C)CC[C@H](O)C(C)(C)[C@@H]5CC[C@]43C)[C@H]12 [Ursolic acid]
hOAT1 (SLC22A6) [1]; [8]
  effect on hOAT1-mediated PAH uptake (in words): significant stimulation of uptake
hOAT3 (SLC22A8) [2]; 1 μM [3H]ES
  effect on hOAT3-mediated ES uptake (in words): failed to produce significant inhibition; also recorded: without effect
hOAT4 (SLC22A11); [7]
  effect on hOAT4-mediated ES uptake (in words): without effect
[4]; i.v., 186 mg
  Cmax: 7400 nM

## CCCCCCC=CCCCCCCCc1cccc(O)c1C(=O)O [ginkgolic acid (15 : 1)]
hOAT3 (SLC22A8) [2]
  inhibition at 50 µM: 30 to 35%

## CCCCCCC=CCCCCCCCCCc1cccc(O)c1C(=O)O [ginkgolic acid (17 : 1)]
hOAT1 (SLC22A6) [1]; [6]
  inhibition at 50 µM: 42%
hOAT3 (SLC22A8) [2]
  inhibition at 50 µM: 41%

## CCCN(CCC)S(=O)(=O)c1ccc(C(=O)O)cc1 [probenecid, reference compound]
hOAT3 (SLC22A8) [2]; probenecid 1000 μM, 1 μM [3H]ES
  inhibition at 1000 µM: > 96%
